According to US12188050B2, “Kidney organoids and methods of manufacturing” (MURDOCH CHILDRENS RESEARCH INSTITUTE, priority 2017, dated 2025):
“Also recorded” adds a separate entry of the source.

Assays:
Type in all cases: cell-based, human
[1] = system: intermediate mesoderm (IM) cells differentiated from hPSCs or hES; assay: qPCR gene expression profiling of intermediate mesoderm at D7+0, FGF9 +/- 1 μM CHIR99021; conditions: low concentration CHIR (1 μM) days 5 to 7 with FGF9 and heparin; qPCR at D7+0
From the text: FIG. 1. Generation of kidney micro-organoids in suspension culture. (A) Outline of the kidney micro-organoid differentiation protocol with images from a differentiation performed using CRL1502.C32 cells. (B) Bright field images showing uniform kidney micro-organoids on Day 7+18 (scale […]). (C, D1 and D2) Immunofluorescence and confocal images of micro-organoids showing formation of nephron segments independent of micro-organoid size and shape, including development of vascular structures (scale […]). (E) Bar graphs showing average fold change for intermediate mesoderm gene expression profiling by qPCR on Day 7+0 for FGF9+/−1 μM CHIR99021. The data represented as Mean, (F) Immunofluorescence for PAX2 for FGF9+/−1 μM CHIR99021 treatment (scale 50 μm) (D7+11). (G) Immunofluorescence and confocal images of nephron compartments within kidney micro-organoids; podocytes (NPHS1+ and MAFB+), proximal tubules (LTL+, CUBN+, LRP2+ and HNF4A+), distal tubules (ECAD), collecting duct (ECAD+ GATA3+) and endothelial cells (SOX17+ and PECAM1+) (scale 50 μm).
hPSCs or hES were differentiated into intermediate mesoderm by exposing cells to high concentration of CHIR (7 μM) for the first 4 days in APEL™ 2 or TeSR™-E6 media (Stem cell technologies) media with 3.5% protein free hybridoma media (PFHM) (Thermo Fischer), APEL™ (Stem cell technologies) or E6 media (Stem cell technologies). […]

[2] = system: kidney organoids from monolayers of hPSC; assay: Effect of duration of initial 7 μM CHIR99021 on kidney organoid patterning (confocal microscopy); conditions: then low CHIR and FGF9+heparin to Day 7
Description: FIG. 2. […] (A) Confocal image of micro-kidney organoid tubules on Day 7+18 showing FITC albumin uptake (scale 5 μm). (B) Confocal images of micro-kidney organoids generated using 4 different cell lines, including hES (H9 GAP-Trap Luc2, hES3 SOX17mCherry) and iPS (CRL1502.C32 and CRL1502.3) on Day 7+18 with antibodies labelling different nephron segments (scale 50 μm). (C, D and E) hES3 SOX17mCherry derived micro-organoids generated after exposure to different days of initial 7 μM CHIR99021 for 3, 4, 5 and 6 days treatment showing bright field (C, scale 100 μm) and immunofluorescence confocal images showing SOX17+ vasculature (D) and MEIS1/2/3+ stroma (E) (scale 100 μm).
To optimise differentiation within the kidney organoid protocol, monolayers of hPSC were stimulated using a fixed concentration of CHIR99021 (7 μM) for varying durations (3, 4, 5 and 6 days) before continued culture to Day 7 in the presence of low CHIR and FGF9+heparin (FIGS. 2C, 2D and 2E). After 18 days, resulting kidney organoids were evaluated for kidney structure using confocal microscopy (FIGS. 2C, 2D and 2E). […] 4 days of initial 7 μM CHIR99021 induction was confirmed as optimal and used in further studies.

[3] = system: kidney micro-organoids at day 7+18; assay: Drug toxicity testing in micro kidney organoids (TUNEL staining, RNA analysis); conditions: 0, 2.5 and 5 μg/ml for 24 hours
Description: FIG. 8. Kidney micro-organoids provides a platform for drug toxicity screening.
To evaluate the suitability of using the suspension culture method described herein to test for drug toxicity of kidneys in vitro, drug toxicity studies were conducted. Organoids produced by the method at day 7+18 were collected and randomized into treatment groups in a 24 well low attachment plates in 250 μl of media. Organoids were stimulated with different concentrations of cytotoxic drug Adriamycin (0, 2.5 and 5 μg/ml) for 24 hours. After stimulation, media was removed and organoids were fixed with 2% PFA for immunofluorescence staining analysis for apoptosis by using TUNEL staining and some organoids were lysed for RNA analysis (FIG. 8A-8D).

[4] = system: C32 derived swirler kidney organoids; assay: Glomerular podocyte maturation in swirler organoids with atRA (immunofluorescence, qPCR)
From the text: FIG. 7. All Trans-Retinoic Acid helps in the improvement of glomerular maturation in kidney micro-organoids. Immunofluorescence analysis of C32 swirler organoids generated by swirler suspension culture. (A) Organoids generated without supplementation at atRA. […] (C) qPCR analysis of organoids generated with and without atRA at different time points (D7+11 and D7+18).
To determine whether addition of all trans retinoic acid (atRA) would facilitate glomerular maturation of the organoids produced by the swirler culture method described in Examples 1-3, atRA was supplemented in the media after D7+0. All trans retinoic acid (2.5 μM) was added from D7+5 to D7+10 on C32 derived swirler organoids (FIG. 5).

Cc1c[nH]c(-c2cnc(NCCNc3ccc(C#N)cn3)nc2-c2ccc(Cl)cc2Cl)n1 [CHIR99021]
expression of PAX2, LHX1 and OSR1 (cap mesenchyme) compared to short CHIR exposure groups [1]: more than 2 folds
increase in expression of Wnt11 and GATA3 (ureteric epithelium) compared to short CHIR exposure groups [1]: more than 2 fold
kidney organoid structure after 18 days ([2]; 7 μM CHIR99021 for 4 or 5 days): generated kidney organoids containing patterning nephrons
kidney organoid structure after 18 days ([2]; 7 μM CHIR99021 for 3 days): failed to generate a kidney morphology
kidney organoid structure after 18 days ([2]; 7 μM CHIR99021 for 6 days): generating larger kidney organoids with greater NPHS1 staining, contained an expanded MEIS1^+ stromal population apparently compromising epithelial structure

COc1cccc2c1C(=O)c1c(O)c3c(c(O)c1C2=O)C[C@@](O)(C(=O)CO)C[C@@H]3O[C@H]1C[C@H](N)[C@H](O)[C@H](C)O1 [Adriamycin]
toxicity by expression of TUNEL apoptotic marker [3]: induces dose dependent toxicity
expression of kidney specific genes in micro-organoids ([3]; RNA analysis): reduces the expression of kidney specific genes

CC1=C(/C=C/C(C)=C/C=C/C(C)=C/C(=O)O)C(C)(C)CCC1 [atRA, all trans retinoic acid]
podocyte phenotype by immunofluorescence compared to control group ([4]; 2.5 μM atRA from D7+5 to D7+10, analysis after D7+18): improved the podocyte phenotype; also recorded: improved glomerular podocyte maturation
mRNA expression of glomerular and proximal tubular markers (qPCR) compared to control ([4]; 2.5 μM atRA, D7+11 and D7+18 samples): increased expression of glomerular markers such as NPHS1 and proximal tubular markers like CUBN
